Among the data in patent EP0536208B1, “1,2-DIHYDRO-3H-DIBENZISOQUINOLINE-1,3-DIONE ANTICANCER AGENTS” (RESEARCH CORPORATION TECHNOLOGIES, INC., priority 1990, dated 1992) are IC50 values, retold here.

For one test, the system named is Resistant L1210. As to the kind of experiment: In vitro tumor cell viability assay using MTT dye. Format: cell-based, Murine. The conditions noted are these: Mus musculus. On the procedure: (§1) Compounds of the present invention were tested for their in vitro activity in tumor cells sensitive and resistant to standard anti-cancer agents. The tumor cell lines used in this protocol are 8226 human Myeloma^1; 8226/Dox-40^2, L-1210/Murine Leukemia, multidrug resistant L-210/^3, 2780 Human Ovarian Cancer and 2780/AD^4. Each of these resistant cell lines is known as a multidrug resistant or "MDR" cell line. These cell lines produce a 170,00 molecular weight membrane protein termed the P-glycoprotein which acts as an active drug efflux pump. Thus, once a cell produces the P-glycoprotein, it has the capability of pumping out of the cell a large variety of unrelated natural products. […] The protocol for measuring the effectiveness of compounds of the present invention is as follows: 2) In Vitro Tumor Cell Viability Assays Using MTT-Dye: Tumors are processed into a single cell suspension as described above. The cells are plated at a concentration of 3-5 X 10^4/1 mL well into plastic 96-well plates. […] Afterwards the medium containing the drug is removed, the cells are "washed" by centrifugation in fresh medium or phosphate-buffered saline (pH 7.4). A tetrazolium dye is then added (3,4,5-dimethylthiazol-2-yl)-2,5-diphenyl tetrazolium bromide (MTT). This dye forms a colored formazan product upon activation by mitochondrial reductases in viable cells. Typically, the formazan product is solubilized in acid-propanol or DMSO. The intensity of the color is proportional to viable cell numbers and this is quantitated by spectrophotometric absorbance ([…]) on a micro ELISA plate reader. Test results are calibrated in % control absorbance from untreated tumor cells (Mossman T: J Immunol Meth 65:55-63, 1983). Using the above procedure, Compound 1 was tested for its cytotoxic activity with respect to various tumor cell lines.

In the next test the test system is L-1210/Murine Leukemia. Description: In vitro tumor cell viability assay using MTT dye. Format: cell-based. The conditions noted are these: Mus musculus. On the procedure: as §1
A further test has as its system HT29p30. As to the kind of experiment: Activity against human colon tumor cells (MTT assay, 3 day drug exposure). The conditions noted are these: cells plated 24 hr. prior to drug addition, read-out: Concentration for 50% inhibition of colony formation for human colon tumors. Format: cell-based. On the procedure: (§2) For example, the compounds of the present invention were evaluated for cytotoxic activities in cloned human colon carcinomas. The clonogenic assays were conducted in accordance with the procedure described hereinbelow: 1) Colony Forming Assays in Soft Agar: Fresh human or murine tumors are disaggregated into single cell suspensions using mechanical, hypoosmotic and/or enzymatic (trypsin) methods. The single cells (about 5 X 10^4-10^5) are plated in 35 mm plastic petri dishes onto a 1 ml "feeder layer" of 0.3% agar dissolved in growth medium containing 5-10% vol/vol of heat-inactivated fetal bovine serum, molten 0.3% agar and the antibiotics penicillin (100 u/mL) and streptomycin (100 ug/mL). Drug exposures can be performed for one hour or continuously (drugs added to final plating medium). Tumor cell colonies > 60 uM in size are counted by automated image analysis after 10-20 days of incubation in a humidified, 5-10% CO2-gassed environment maintained at 37°C. Inhibition of colony formation is calculated based on comparisons to control (untreated) plates wherein the growth of hundreds of colonies/plate is typical. (Salmon SE, et al., N Engl J Med 298(24):1321-1327, 1978).
as §1

Another test deals with SW80p105. The test is described as above. It counts as cell-based. The conditions noted are these: cells plated 24 hr. prior to drug addition, read-out: Concentration for 50% inhibition of colony formation for human colon tumors. Here is the method: as §2, §1
Another test concerns 205p14. The test is described as above. Format: cell-based. The conditions noted are these: cells plated 24 hr. prior to drug addition, read-out: Concentration for 50% inhibition of colony formation for human colon tumors. Here is the method: as §2
(§3) Compounds of the present invention were tested for their in vitro activity in tumor cells sensitive and resistant to standard anti-cancer agents. The tumor cell lines used in this protocol are 8226 human Myeloma^1; 8226/Dox-40^2, L-1210/Murine Leukemia, multidrug resistant L-210/^3, 2780 Human Ovarian Cancer and 2780/AD^4. Each of these resistant cell lines is known as a multidrug resistant or "MDR" cell line. These cell lines produce a 170,00 molecular weight membrane protein termed the P-glycoprotein which acts as an active drug efflux pump. Thus, once a cell produces the P-glycoprotein, it has the capability of pumping out of the cell a large variety of unrelated natural products. […] The protocol for measuring the effectiveness of compounds of the present invention is as follows: 2) In Vitro Tumor Cell Viability Assays Using MTT-Dye: Tumors are processed into a single cell suspension as described above. The cells are plated at a concentration of 3-5 X 10^4/1 mL well into plastic 96-well plates. Growth medium containing 5-10% (vol/vol) heat-inactivated fetal bovine serum and penicillin/streptomycin (as above) is added prior to incubation at 37°C for six days. Afterwards the medium containing the drug is removed, the cells are "washed" by centrifugation in fresh medium or phosphate-buffered saline (pH 7.4). A tetrazolium dye is then added (3,4,5-dimethylthiazol-2-yl)-2,5-diphenyl tetrazolium bromide (MTT). This dye forms a colored formazan product upon activation by mitochondrial reductases in viable cells. Typically, the formazan product is solubilized in acid-propanol or DMSO. The intensity of the color is proportional to viable cell numbers and this is quantitated by spectrophotometric absorbance ([…]) on a micro ELISA plate reader. Test results are calibrated in % control absorbance from untreated tumor cells (Mossman T: J Immunol Meth 65:55-63, 1983). Using the above procedure, Compound 1 was tested for its cytotoxic activity with respect to various tumor cell lines.

The subject of a further test is LOVOp32. The description is as above. It counts as cell-based. The conditions noted are these: cells plated 24 hr. prior to drug addition, read-out: Concentration for 50% inhibition of colony formation for human colon tumors. Here is the method: as §2, §3
The next test relates to 8226 Human Myeloma. Description: In vitro tumor cell viability assay using MTT dye. It counts as cell-based. The conditions noted are these: Homo sapiens; 8226 Myeloma Cells Sensitive; continuous exposure, MTT dye assay; read-out: IC50 VALUES. Here is the method:
as §1

The next test has as its system 8226/DOX-40. As to the kind of experiment: In vitro tumor cell viability assay using MTT dye. It counts as cell-based, Human. The conditions noted are these: Homo sapiens; 8226 Myeloma Cells Resistant; continuous exposure, MTT dye assay; read-out: IC50 VALUES. On the procedure:
as §1

[1] abbreviates: 144 h, Resistant L1210, six day MTT assay, continuous drug exposure, read-out: Concentration for 50% inhibition of tumor cells.
Where [2] appears, read: 144 h, Sensitive L1210, six day MTT assay, continuous drug exposure, read-out: Concentration for 50% inhibition of tumor cells.
The mark [3] stands for this setting: L1210 Leukemia Cells Resistant, continuous exposure, MTT dye assay, read-out: IC50 VALUES.
[4] abbreviates: L1210 Leukemia Cells Sensitive, continuous exposure, MTT dye assay, read-out: IC50 VALUES.

Structures are written as SMILES. Converted amounts (≈) assume the structure as drawn. Like-named read-outs stand apart in the source and are kept apart here. A value given as a limit tells only on which side of the number the result lay.

As to `Cc1c2ccccc2c2c3c(cccc13)C(=O)N(CCN(C)C)C2=O` [Compound 19, 2-[2'-(Dimethylamino)ethyl]-1,2-dihydro-7-methyl-3H-dibenz(deh)isoquinoline-1,3-dione], the IC50 in the test on Resistant L1210 (setting [1]) and in the test on L-1210/Murine Leukemia (setting [2]) was 3 ng/mL (≈ 9.03 nM) throughout.
For the molecule `CNCCN1C(=O)c2cccc3cc4ccccc4c(c23)C1=O` [Compound 22, 1,2-Dihydro-2-[2'-(methylamino)ethyl]-3H-dibenz(deh)isoquinoline-1,3-dione], the results for the IC50 in the test on Resistant L1210 (setting [1]) and with L-1210/Murine Leukemia (setting [2]) were 2.7 ng/mL (≈ 8.87 nM) and 3.2 ng/mL (≈ 10.5 nM), respectively.
For `CN(C)CCN1C(=O)c2cccc3cc4ccc(Cl)cc4c(c23)C1=O` [Compound 16, 10-Chloro-2-[2'-(dimethylamino)ethyl]-1,2-dihydro-3H-dibenz(deh)isoquinoline-1,3-dione], the IC50 in the test on Resistant L1210 (setting [1]) is 2 ng/mL (≈ 5.67 nM); in the test on L-1210/Murine Leukemia (setting [2]), 2.5 ng/mL (≈ 7.09 nM).
Turning to `O=C1c2cccc3cc4ccccc4c(c23)C(=O)N1CCCN(CCO)CCO` [Compound 12], the IC50 in the test on HT29p30 came out at 8.3 µM; in the test on SW80p105, 1.3 µM; in the test with 205p14, 11.5 µM; with LOVOp32 it was 0.8 µM.
With `CN(C)CCN1C(=O)c2cccc3cc4cccc(N)c4c(c23)C1=O` [Compound 3, 11-Amino-2-[2'-(dimethylamino)ethyl]-1,2-dihydro-3H-dibenz(deh)isoquinoline-1,3-dione], the IC50 turned out to be 3.6 µM in the test on HT29p30, 3.1 µM in the test on SW80p105, 2.6 µM in the test on 205p14 and 4 µM in the test with LOVOp32.
As to `CN(C)CCN1C(=O)c2cccc3cc4c(N)cccc4c(c23)C1=O` [Compound 14, 8-Amino-2-[2'-(dimethylamino)ethyl]-1,2-dihydro-3H-dibenz-(deh)isoquinoline-1,3-dione], the IC50 in the test with Resistant L1210 (setting [3]) is over 5000 ng/mL; with L-1210/Murine Leukemia (setting [2]), 5000 ng/mL (≈ 15000 nM); in the test on L-1210/Murine Leukemia (setting [4]), 5000 ng/mL (≈ 15000 nM); with 8226 Human Myeloma, over 100 ng/mL; in the test on 8226/DOX-40, over 100 ng/mL.
On to `O=C1c2cccc3cc4ccccc4c(c23)C(=O)N1CCN1CCCC1` [Compound 8, 2-[2'-(N-pyrrolidino)ethyl]-1,2-dihydro-3H-dibenz(deh)isoquinoline-1,3-dione], for which the IC50 is 2.6 µM with HT29p30, 0.9 µM in the test on SW80p105, 11.7 µM with 205p14 and 1 µM in the test with LOVOp32.
Taken in the same sequence, the figures for `O=C1c2cccc3cc4ccccc4c(c23)C(=O)N1CCN1CCCCC1` [Compound 7, 2-[2'-(N-piperidino)ethyl]-1,2-dihydro-3H-dibenz(deh)isoquinoline-1,3-dione] were 4.4 µM, 1 µM, 10 µM and 0.75 µM.
Regarding `CN(C)CCN1C(=O)c2cccc3cc4cccc([N+](=O)[O-])c4c(c23)C1=O` [Compound 2, 2-[2-(dimethylamino)ethyl]-1,2-dihydro-11-nitro-2H-dibenz(deh)isoquinoline-1,3-dione], the IC50 in the test with HT29p30 is 1.75 µM; in the test with SW80p105, 2.5 µM; in the test on 205p14, 3 µM; in the test on LOVOp32, 3 µM.
Consider `CCc1ccc2c3c(c4ccccc4cc13)C(=O)N(CCN(C)C)C2=O` [Compound 15, 2-[2'-(dimethylamino)ethyl]1,2-dihydro-6-ethyl-3H-dibenz(deh)isoquinoline-1,3-dione], for which the IC50 with Resistant L1210 (setting [1]) and in the test with L-1210/Murine Leukemia (setting [2]) was 3.1 ng/mL (≈ 8.95 nM) each time.
With `CN(C)CCN1C(=O)c2cccc3c(Cl)c4ccccc4c(c23)C1=O` [Compound 17, 7-Chloro-2-[2'-(dimethylamino)ethyl]-1,2-dihydro-3H-dibenz(deh)-isoquinoline-1,3-dione], the IC50 in the test on Resistant L1210 (setting [1]) stood at 30 ng/mL (≈ 85 nM); in the test on L-1210/Murine Leukemia (setting [2]), 28 ng/mL (≈ 79.4 nM).
`CN(C)CCCN1C(=O)c2cccc3cc4ccccc4c(c23)C1=O` [Compound 11, 2-[3'-(dimethylamino)propyl]-1,2-dihydro-3H-dibenz(deh)isoquinoline-1,3-dione]: the IC50 with HT29p30 was 8.3 µM; with SW80p105 it was 1.3 µM; in the test on 205p14, 13.5 µM; in the test with LOVOp32 it was 1.6 µM.
For the molecule `CN(C)CCN1C(=O)c2cccc3cc4c([N+](=O)[O-])cccc4c(c23)C1=O` [Compound 13, 2-[2'-(dimethylamino)ethyl]-1,2-dihydro-8-nitro-3H-dibenz(deh)isoquinoline-1,3-dione], the IC50 was 3 ng/mL (≈ 8.26 nM) in the test with Resistant L1210 (setting [1]); 2.9 ng/mL (≈ 7.98 nM) with Resistant L1210 (setting [3]); 2.7 ng/mL (≈ 7.43 nM) in the test with L-1210/Murine Leukemia (setting [2]); 2.5 ng/mL (≈ 6.88 nM) in the test on L-1210/Murine Leukemia (setting [4]); 5 ng/mL (≈ 13.8 nM) in the test with 8226 Human Myeloma; 10 ng/mL (≈ 27.5 nM) in the test with 8226/DOX-40.
With `COc1c2ccccc2c2c3c(cccc13)C(=O)N(CCN(C)C)C2=O` [Compound 20, 2-[2'-(Dimethylamino)ethyl]-1,2-dihydro-7-methoxy-3H-dibenz-(deh)isoquinoline-1,3-dione], the IC50 with Resistant L1210 (setting [1]) worked out at 2.8 ng/mL (≈ 8.04 nM); in the test with L-1210/Murine Leukemia (setting [2]) it was 3.2 ng/mL (≈ 9.18 nM).
`CN(C)c1ccc(N2C(=O)c3cccc4cc5ccccc5c(c34)C2=O)cc1` [Compound 10, 2-(4'-dimethylaminophenyl)-1,2-dihydro-3H-dibenz(deh)isoquinoline-1,3-dione]: the IC50 in the test with HT29p30 worked out at 0.25 µM; in the test on SW80p105, 0.75 µM.
Regarding `CCN1CCCC(N2C(=O)c3cccc4cc5ccccc5c(c34)C2=O)C1` (stereo not shown) [Compound 9, 2-(1'-ethyl-3'piperidinyl)-1,2-dihydro-3H-dibenz(deh)isoquinoline-1,3-dione], the IC50 was determined as 11.2 µM with HT29p30, 3 µM in the test on SW80p105, 17.5 µM in the test on 205p14 and 5.6 µM with LOVOp32.
Take `CN(C)CCN1C(=O)c2cccc3c(O)c4ccccc4c(c23)C1=O` [Compound 21, 2-[2'-(dimethylamino)ethyl]-1,2-dihydro-7-hydroxy-3H-dibenz(deh)isoquinoline-1,3-dione]: the IC50 in the test on Resistant L1210 (setting [1]) and in the test with L-1210/Murine Leukemia (setting [2]) was 3.2 ng/mL (≈ 9.57 nM) each time.
